# Measurements reported in ChEMBL document CHEMBL5532665 (J Med Chem, 2024).
# Activity calls are given as the source filed them. No cut-off for these calls is given here.
# What was measured:
# [1] = test system: Mus musculus; experiment: Antinociceptive activity in Kunming mouse model assessed as latency of tail withdrawal at 13881 nmol/kg, sc measured for 60 mins by tail-flick test relative to control; format: functional; conditions: 1 h
# [2] = test system: Mus musculus; experiment: Antinociceptive activity in Kunming mouse model assessed as latency of tail withdrawal at 13881 nmol/kg, sc measured for 120 mins by tail-flick test relative to control; format: functional; conditions: 2 h
# [3] = test system: Mus musculus; experiment: Antinociceptive activity in Kunming mouse model assessed as latency of tail withdrawal at 13881 nmol/kg, sc measured for 10 mins by tail-flick test relative to control; format: functional
# [4] = test system: Mus musculus; experiment: Antinociceptive activity in Kunming mouse model assessed as latency of tail withdrawal at 13881 nmol/kg, sc measured for 30 mins by tail-flick test relative to control; format: functional; conditions: 0.5 h
# [5] = test system: Mus musculus; experiment: Antinociceptive activity in Kunming mouse model assessed as latency of tail withdrawal at 136.2 nmol/kg, sc measured for 120 mins by tail-flick test relative to control; format: functional; conditions: 2 h
# [6] = test system: Mus musculus; experiment: Antinociceptive activity in Kunming mouse model assessed as latency of tail withdrawal at 136.2 nmol/kg, sc measured for 30 mins by tail-flick test relative to control; format: functional; conditions: 0.5 h
# [7] = test system: Mus musculus; experiment: Antinociceptive activity in Kunming mouse model assessed as latency of tail withdrawal at 136.2 nmol/kg, sc measured for 60 mins by tail-flick test relative to control; format: functional; conditions: 1 h
# [8] = test system: Mus musculus; experiment: Antinociceptive activity in Kunming mouse model assessed as latency of tail withdrawal at 136.2 nmol/kg, sc measured for 10 mins by tail-flick test relative to control; format: functional
# [9] = test system: Mus musculus; experiment: Antinociceptive activity in Kunming mouse model assessed as latency of tail withdrawal at 132.2 nmol/kg, sc measured for 30 mins by tail-flick test relative to control; format: functional; conditions: 0.5 h
# [10] = test system: Mus musculus; experiment: Antinociceptive activity in Kunming mouse model assessed as latency of tail withdrawal at 132.2 nmol/kg, sc measured for 10 mins by tail-flick test relative to control; format: functional
# [11] = test system: Mus musculus; experiment: Antinociceptive activity in Kunming mouse model assessed as latency of tail withdrawal at 132.2 nmol/kg, sc measured for 120 mins by tail-flick test relative to control; format: functional; conditions: 2 h
# [12] = test system: Mus musculus; experiment: Antinociceptive activity in Kunming mouse model assessed as latency of tail withdrawal at 132.2 nmol/kg, sc measured for 60 mins by tail-flick test relative to control; format: functional; conditions: 1 h
# [13] = test system: Mus musculus; experiment: Antinociceptive activity in Kunming mouse model assessed as latency of tail withdrawal at 1312 nmol/kg, sc measured for 10 mins by tail-flick test relative to control; format: functional
# [14] = test system: Mus musculus; experiment: Antinociceptive activity in Kunming mouse model assessed as latency of tail withdrawal at 1312 nmol/kg, sc measured for 120 mins by tail-flick test relative to control; format: functional; conditions: 2 h
# [15] = test system: Mus musculus; experiment: Antinociceptive activity in Kunming mouse model assessed as latency of tail withdrawal at 1312 nmol/kg, sc measured for 60 mins by tail-flick test relative to control; format: functional; conditions: 1 h
# [16] = molecular target: T1, Mu-type opioid receptor (Homo sapiens, UniProt P35372); experiment: Agonist activity at human MOR expressed in CHO-K1 cells co-expressing G-alpha15 by calcium mobilization assay relative to control; format: functional, cell-based; conditions: filed as agonist
# T1 sequence (P35372 whole entry): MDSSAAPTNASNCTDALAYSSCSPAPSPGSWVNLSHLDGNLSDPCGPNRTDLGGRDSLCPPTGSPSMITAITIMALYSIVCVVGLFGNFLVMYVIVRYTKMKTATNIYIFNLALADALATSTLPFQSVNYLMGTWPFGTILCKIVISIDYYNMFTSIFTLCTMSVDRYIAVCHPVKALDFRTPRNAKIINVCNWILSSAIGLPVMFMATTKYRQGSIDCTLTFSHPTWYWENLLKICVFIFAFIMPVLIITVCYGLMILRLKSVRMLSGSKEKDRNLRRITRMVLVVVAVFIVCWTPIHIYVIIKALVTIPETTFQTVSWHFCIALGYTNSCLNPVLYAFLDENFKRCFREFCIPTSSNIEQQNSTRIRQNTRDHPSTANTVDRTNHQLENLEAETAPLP
# [17] = molecular target: T2, Delta-type opioid receptor (Homo sapiens, UniProt P41143); experiment: Agonist activity at human DOR expressed in CHO-K1 cells co-expressing G-alpha15 by calcium mobilization assay relative to control; format: functional, cell-based; conditions: filed as agonist
# T2 sequence (P41143 whole entry): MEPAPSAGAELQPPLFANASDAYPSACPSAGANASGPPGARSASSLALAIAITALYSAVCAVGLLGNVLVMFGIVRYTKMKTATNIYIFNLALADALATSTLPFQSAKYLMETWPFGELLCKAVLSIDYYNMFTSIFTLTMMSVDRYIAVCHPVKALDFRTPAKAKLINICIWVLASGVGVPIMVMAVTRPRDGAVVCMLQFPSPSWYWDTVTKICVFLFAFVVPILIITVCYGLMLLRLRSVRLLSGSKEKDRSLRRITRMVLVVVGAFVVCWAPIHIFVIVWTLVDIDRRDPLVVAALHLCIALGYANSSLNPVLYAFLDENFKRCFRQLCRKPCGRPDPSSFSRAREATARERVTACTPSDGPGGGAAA
# [18] = molecular target: T2, Delta-type opioid receptor; experiment: Agonist activity at human DOR expressed in CHO-K1 cells co-expressing G-alpha15 by calcium mobilization assay; format: functional, cell-based
# [19] = molecular target: T1, Mu-type opioid receptor; experiment: Agonist activity at human MOR expressed in CHO-K1 cells co-expressing G-alpha15 by calcium mobilization assay; format: functional, cell-based
# [20] = test system: Mus musculus; experiment: Antinociceptive activity in Kunming mouse model assessed as latency of tail withdrawal at 1312 nmol/kg, sc measured for 30 mins by tail-flick test relative to control; format: functional; conditions: 0.5 h
# [21] = test system: Mus musculus; experiment: Antinociceptive activity in Kunming mouse model assessed as latency of tail withdrawal at 1362 nmol/kg, sc measured for 60 mins by tail-flick test relative to control; format: functional; conditions: 1 h
# [22] = test system: Mus musculus; experiment: Antinociceptive activity in Kunming mouse model assessed as latency of tail withdrawal at 1362 nmol/kg, sc measured for 120 mins by tail-flick test relative to control; format: functional; conditions: 2 h
# [23] = test system: Mus musculus; experiment: Antinociceptive activity in Kunming mouse model assessed as latency of tail withdrawal at 1362 nmol/kg, sc measured for 30 mins by tail-flick test relative to control; format: functional; conditions: 0.5 h
# [24] = test system: Mus musculus; experiment: Antinociceptive activity in Kunming mouse model assessed as latency of tail withdrawal at 1362 nmol/kg, sc measured for 10 mins by tail-flick test relative to control; format: functional
# [25] = molecular target: Kappa-type opioid receptor (Homo sapiens, UniProt P41145); experiment: Agonist activity at human KOR expressed in CHO-K1 cells co-expressing G-alpha15 upto 100 uM by calcium mobilization assay; format: functional, cell-based
# Chain of Kappa-type opioid receptor (P41145 whole entry): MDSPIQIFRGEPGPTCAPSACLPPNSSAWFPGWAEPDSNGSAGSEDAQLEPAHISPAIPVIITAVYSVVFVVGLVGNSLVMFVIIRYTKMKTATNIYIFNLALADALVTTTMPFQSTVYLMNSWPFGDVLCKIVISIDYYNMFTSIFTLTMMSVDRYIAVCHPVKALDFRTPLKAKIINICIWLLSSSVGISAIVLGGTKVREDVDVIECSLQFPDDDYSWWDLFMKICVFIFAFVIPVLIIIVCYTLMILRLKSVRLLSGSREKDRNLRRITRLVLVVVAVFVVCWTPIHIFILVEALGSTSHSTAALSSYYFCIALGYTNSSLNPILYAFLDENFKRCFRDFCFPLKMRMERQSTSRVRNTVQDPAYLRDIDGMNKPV
# [26] = test system: Mus musculus; experiment: Antinociceptive activity in Kunming mouse model assessed as latency of tail withdrawal at 134 nmol/kg, sc measured for 10 mins by tail-flick test relative to control; format: functional
# [27] = test system: Mus musculus; experiment: Antinociceptive activity in Kunming mouse model assessed as latency of tail withdrawal at 134 nmol/kg, sc measured for 30 mins by tail-flick test relative to control; format: functional; conditions: 0.5 h
# [28] = test system: Mus musculus; experiment: Antinociceptive activity in Kunming mouse model assessed as latency of tail withdrawal at 134 nmol/kg, sc measured for 60 mins by tail-flick test relative to control; format: functional; conditions: 1 h
# [29] = test system: Mus musculus; experiment: Antinociceptive activity in Kunming mouse model assessed as latency of tail withdrawal at 134 nmol/kg, sc measured for 120 mins by tail-flick test relative to control; format: functional; conditions: 2 h
# [30] = test system: Mus musculus; experiment: Antinociceptive activity in Kunming mouse model assessed as latency of tail withdrawal at 144.4 nmol/kg, sc measured for 30 mins by tail-flick test relative to control; format: functional; conditions: 0.5 h
# [31] = test system: Mus musculus; experiment: Antinociceptive activity in Kunming mouse model assessed as latency of tail withdrawal at 144.4 nmol/kg, sc measured for 10 mins by tail-flick test relative to control; format: functional
# [32] = test system: Mus musculus; experiment: Antinociceptive activity in Kunming mouse model assessed as latency of tail withdrawal at 144.4 nmol/kg, sc measured for 60 mins by tail-flick test relative to control; format: functional; conditions: 1 h
# [33] = test system: Mus musculus; experiment: Antinociceptive activity in Kunming mouse model assessed as latency of tail withdrawal at 144.4 nmol/kg, sc measured for 120 mins by tail-flick test relative to control; format: functional; conditions: 2 h
# [34] = test system: Mus musculus; experiment: Antinociceptive activity in Kunming mouse model assessed as latency of tail withdrawal at 1404 nmol/kg, sc measured for 30 mins by tail-flick test relative to control; format: functional; conditions: 0.5 h
# [35] = test system: Mus musculus; experiment: Antinociceptive activity in Kunming mouse model assessed as latency of tail withdrawal at 1404 nmol/kg, sc measured for 120 mins by tail-flick test relative to control; format: functional; conditions: 2 h
# [36] = test system: Mus musculus; experiment: Antinociceptive activity in Kunming mouse model assessed as latency of tail withdrawal at 1404 nmol/kg, sc measured for 10 mins by tail-flick test relative to control; format: functional
# [37] = test system: Mus musculus; experiment: Antinociceptive activity in Kunming mouse model assessed as latency of tail withdrawal at 1404 nmol/kg, sc measured for 60 mins by tail-flick test relative to control; format: functional; conditions: 1 h
# [38] = test system: Mus musculus; experiment: Antinociceptive activity in Kunming mouse model assessed as latency of tail withdrawal at 13882 nmol/kg, sc measured for 30 mins by tail-flick test relative to control; format: functional; conditions: 0.5 h
# [39] = test system: Mus musculus; experiment: Antinociceptive activity in Kunming mouse model assessed as latency of tail withdrawal at 13882 nmol/kg, sc measured for 60 mins by tail-flick test relative to control; format: functional; conditions: 1 h
# [40] = test system: Mus musculus; experiment: Antinociceptive activity in Kunming mouse model assessed as latency of tail withdrawal at 13882 nmol/kg, sc measured for 120 mins by tail-flick test relative to control; format: functional; conditions: 2 h
# [41] = test system: Mus musculus; experiment: Antinociceptive activity in Kunming mouse model assessed as latency of tail withdrawal at 13882 nmol/kg, sc measured for 10 mins by tail-flick test relative to control; format: functional
compound,measurement,setting,value
CN1CC(=O)N[C@@H](Cc2ccccc2)C(=O)N[C@H](C(=O)N2CCC[C@@H]2C(N)=O)CC(=O)NCCCC[C@@H](NC(=O)[C@@H](N)Cc2ccc(O)cc2)C1=O,MPE,[1],75.7%
same,MPE,[2],58.7%
same,MPE,[3],53.2%
same,MPE,[4],92.7%
CC1(C)NC(=O)[C@H](NC(=O)[C@@H](N)Cc2ccc(O)cc2)CCCCNC(=O)C[C@@H](C(=O)N2CCC[C@@H]2C(N)=O)NC(=O)[C@H](Cc2ccccc2)NC1=O,MPE,[5],46.1%
same,MPE,[6],91.1%
same,MPE,[7],69.3%
same,MPE,[8],48.9%
NC(=O)[C@H]1CCCN1C(=O)[C@@H]1CC(=O)NCCCC[C@@H](NC(=O)[C@@H](N)Cc2ccc(O)cc2)C(=O)NCC(=O)N[C@@H](Cc2ccc3ccccc3c2)C(=O)N1,MPE,[9],94.8%
same,MPE,[10],78.1%
same,MPE,[11],26.8%
same,MPE,[12],76.9%
CCCC[C@@H]1NC(=O)[C@H](NC(=O)[C@@H](N)Cc2ccc(O)cc2)CCCCNC(=O)C[C@H](C(=O)N2CCC[C@H]2C(N)=O)NC(=O)[C@H](Cc2ccccc2)NC1=O,MPE,[13],50.4%
same,MPE,[14],28%
same,MPE,[15],75.1%
same,Emax,[16],88.6%
same,Emax,[17],83.9%
same,EC50,[18],20 nM
same,EC50,[19],2170 nM
same,MPE,[20],90%
Cc1cc(O)cc(C)c1C[C@H](N)C(=O)N[C@@H]1CCCCNC(=O)C[C@@H](C(=O)N2CCC[C@@H]2C(N)=O)NC(=O)[C@H](Cc2ccccc2)NC(=O)CNC1=O,MPE,[21],73.4%
same,MPE,[22],44.5%
same,MPE,[23],90.5%
same,MPE,[24],75%
NC(=O)[C@@H]1CCCN1C(=O)[C@H]1CC(=O)NCCCC[C@@H](NC(=O)[C@@H](N)Cc2ccc(O)cc2)C(=O)N2CCC[C@H]2C(=O)N[C@@H](Cc2ccccc2)C(=O)N1,Activity,[25],inactive
same,Emax,[16],83.6%
same,MPE,[26],57.9%
same,EC50,[19],2090 nM
same,MPE,[27],88%
same,MPE,[28],84.5%
same,MPE,[29],46.1%
NC(=O)[C@@H]1CCCN1C(=O)[C@H]1CC(=O)NCCCC[C@@H](NC(=O)[C@@H](N)Cc2ccc(O)cc2)C(=O)NCC(=O)N[C@@H](c2ccccc2)C(=O)N1,MPE,[30],94.4%
same,Activity,[25],inactive
same,MPE,[31],44.4%
same,MPE,[32],87.5%
same,MPE,[33],44.4%
NC(=O)[C@H]1CCCN1C(=O)[C@@H]1CC(=O)NCCCC[C@@H](NC(=O)[C@@H](N)Cc2ccc(O)cc2)C(=O)NCC(=O)N[C@@H](CC2CCCCC2)C(=O)N1,MPE,[34],92.4%
same,MPE,[35],36.1%
same,MPE,[36],61.9%
same,MPE,[37],74.3%
NC(=O)[C@H]1CCCN1C(=O)[C@@H]1CC(=O)NCCCC[C@@H](NC(=O)[C@@H](N)Cc2ccc(O)cc2)C(=O)NCC(=O)N[C@@H](CCc2ccccc2)C(=O)N1,MPE,[38],96%
same,MPE,[39],73.7%
same,MPE,[40],25.6%
same,MPE,[41],55%
